Data on 5 compounds can be found in ChEMBL document CHEMBL1133775, “Potent and selective indolomorphinan antagonists of the kappa-opioid receptor” (J Med Chem, 2000).

The structures appear in SMILES notation.

Experiment [1] concerns the target Delta-type opioid receptor (Mus musculus) (UniProt P32300). The experiment can be described thus: Opioid receptor delta 1 Antagonism (100 nM) is expressed as (Ke = [antagonist] / (IC50 ratio -1). Format: functional.
Experiment [2] deals with Mu-type opioid receptor (Cavia porcellus) (UniProt P97266). The experiment is described as follows: Opioid receptor mu 1 Antagonism (100 nM) is expressed as (Ke = [antagonist] / (IC50 ratio -1). The format is functional.
Chain of Mu-type opioid receptor (Cavia porcellus) (P97266 whole entry): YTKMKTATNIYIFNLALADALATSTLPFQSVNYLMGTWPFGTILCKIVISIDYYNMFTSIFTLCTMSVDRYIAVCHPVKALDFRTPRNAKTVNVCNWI
Experiment [3] has as its target Kappa-type opioid receptor (Cavia porcellus) (UniProt P41144). The experiment can be described thus: Ratio of the IC50 of Kappa receptor agonist, ethylketazocine in the presence of compound in GPI divided by the control IC50. Format: functional.
For experiment [4], the target named is T1, Opioid receptors; delta & kappa (Homo sapiens) (UniProt P41145+P41143). The experiment is described as follows: Selectivity ratio, ratio of Ke value of delta to kappa opioid receptor. Format: protein assay.
T1 sequence (P41143 whole entry, looked up): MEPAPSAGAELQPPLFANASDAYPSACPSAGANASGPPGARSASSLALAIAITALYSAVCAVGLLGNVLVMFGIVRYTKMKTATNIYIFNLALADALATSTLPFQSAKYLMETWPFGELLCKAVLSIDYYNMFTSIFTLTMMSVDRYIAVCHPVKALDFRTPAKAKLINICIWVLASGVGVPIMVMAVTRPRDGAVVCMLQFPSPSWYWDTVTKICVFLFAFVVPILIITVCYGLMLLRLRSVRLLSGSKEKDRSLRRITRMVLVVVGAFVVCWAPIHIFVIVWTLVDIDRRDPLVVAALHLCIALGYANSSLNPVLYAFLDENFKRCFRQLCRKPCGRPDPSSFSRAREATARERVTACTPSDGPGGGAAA
T1 sequence (P41145 whole entry, looked up): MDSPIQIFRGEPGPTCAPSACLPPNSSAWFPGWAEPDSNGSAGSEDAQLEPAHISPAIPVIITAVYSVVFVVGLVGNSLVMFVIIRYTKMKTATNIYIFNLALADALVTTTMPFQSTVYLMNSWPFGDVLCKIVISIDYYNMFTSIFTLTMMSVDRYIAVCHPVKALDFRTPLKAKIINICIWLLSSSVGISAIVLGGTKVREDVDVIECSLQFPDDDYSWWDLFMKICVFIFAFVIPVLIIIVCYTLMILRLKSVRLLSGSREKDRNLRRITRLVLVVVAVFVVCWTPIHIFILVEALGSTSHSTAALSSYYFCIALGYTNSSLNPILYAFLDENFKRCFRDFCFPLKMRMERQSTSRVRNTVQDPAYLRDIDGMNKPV
The target of experiment [5] is Mu-type opioid receptor (Cavia porcellus) (UniProt P97266). The experiment is described as follows: Ratio of the IC50 of mu receptor agonist, Morphine in the presence of compound in GPI divided by the control IC50. The format is functional.
The nature of experiment [6]: Selectivity ratio, ratio of Ke value of mu to kappa opioid receptor.
Experiment [7] addresses Delta-type opioid receptor (Mus musculus) (UniProt P32300). The experiment can be described thus: Ratio of the IC50 of delta receptor agonist, [D-Ala-2, D-Leu5]-enkephalin in the presence of compound in MVD divided by the control IC50. Format: functional.
Experiment [8] deals with Kappa-type opioid receptor (Cavia porcellus) (UniProt P41144). The experiment can be described thus: Opioid receptor kappa 1 Antagonism (100 nM) is expressed as (Ke = [antagonist] / (IC50 ratio -1). Format: functional.
Chain of Kappa-type opioid receptor (Cavia porcellus) (P41144 whole entry): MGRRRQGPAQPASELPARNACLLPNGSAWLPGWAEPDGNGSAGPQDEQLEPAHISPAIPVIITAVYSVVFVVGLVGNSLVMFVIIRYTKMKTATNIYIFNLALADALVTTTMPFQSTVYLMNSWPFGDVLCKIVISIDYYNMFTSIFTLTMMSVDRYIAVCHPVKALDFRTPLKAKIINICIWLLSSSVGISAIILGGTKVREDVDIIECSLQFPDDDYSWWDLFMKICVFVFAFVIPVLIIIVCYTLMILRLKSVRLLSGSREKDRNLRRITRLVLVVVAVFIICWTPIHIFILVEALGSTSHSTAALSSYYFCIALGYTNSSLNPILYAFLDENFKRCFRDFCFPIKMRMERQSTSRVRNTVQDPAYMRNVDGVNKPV
The target of experiment [9] is T1, Opioid receptors; delta & kappa (Homo sapiens). The experiment is described as follows: Selectivity ratio, ratio of Ke value of Kappa to Delta opioid receptor (extrapolated value). The format is protein assay.
In the next experiment the target is Mu-type opioid receptor (Rattus norvegicus, UniProt P33535). The experiment can be described thus: Binding affinity on HEK293 cells transiently transfected with plasmids encoding the rat Opioid receptor mu 1. Format: cell-based.
Chain of Mu-type opioid receptor (P33535 whole entry): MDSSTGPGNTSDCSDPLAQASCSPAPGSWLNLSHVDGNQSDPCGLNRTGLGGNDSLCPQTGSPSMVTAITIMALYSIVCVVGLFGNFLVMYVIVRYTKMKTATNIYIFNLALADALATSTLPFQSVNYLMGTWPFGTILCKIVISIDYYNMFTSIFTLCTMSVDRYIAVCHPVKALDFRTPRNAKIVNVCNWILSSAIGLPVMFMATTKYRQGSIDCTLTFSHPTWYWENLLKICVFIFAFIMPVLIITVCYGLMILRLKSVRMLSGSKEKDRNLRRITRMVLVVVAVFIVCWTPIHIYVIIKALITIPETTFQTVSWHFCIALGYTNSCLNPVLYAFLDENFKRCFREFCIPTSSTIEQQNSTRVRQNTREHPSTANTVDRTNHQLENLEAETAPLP
The target in experiment [10] is Kappa-type opioid receptor (Rattus norvegicus, UniProt P34975). The experiment is described as follows: Binding affinity on HEK293 cells transiently transfected with plasmids encoding the rat Opioid receptor kappa 1. Format: cell-based.
Chain of Kappa-type opioid receptor (P34975 whole entry): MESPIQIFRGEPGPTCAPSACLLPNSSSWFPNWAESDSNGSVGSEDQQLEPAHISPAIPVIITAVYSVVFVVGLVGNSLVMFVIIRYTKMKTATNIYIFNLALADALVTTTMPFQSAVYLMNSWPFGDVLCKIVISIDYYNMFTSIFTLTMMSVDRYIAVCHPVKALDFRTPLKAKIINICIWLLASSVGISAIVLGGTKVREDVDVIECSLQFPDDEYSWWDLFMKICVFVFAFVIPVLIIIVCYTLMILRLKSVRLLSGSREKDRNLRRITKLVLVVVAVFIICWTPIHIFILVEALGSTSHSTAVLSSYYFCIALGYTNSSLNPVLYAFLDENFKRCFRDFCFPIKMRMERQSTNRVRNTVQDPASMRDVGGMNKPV
The target in experiment [11] is T1, Opioid receptors; delta & kappa (Homo sapiens). The experiment can be described thus: Selectivity ratio, ratio of binding affinity of delta to kappa opioid receptor. Format: protein assay.
Experiment [12] deals with Opioid receptors; mu & kappa (Homo sapiens) (UniProt P41145+P35372). The experiment can be described thus: Selectivity ratio, ratio of binding affinity of mu to kappa opioid receptor. The format is protein assay.
Chain of Opioid receptors; mu & kappa (Homo sapiens) (P35372 whole entry, looked up): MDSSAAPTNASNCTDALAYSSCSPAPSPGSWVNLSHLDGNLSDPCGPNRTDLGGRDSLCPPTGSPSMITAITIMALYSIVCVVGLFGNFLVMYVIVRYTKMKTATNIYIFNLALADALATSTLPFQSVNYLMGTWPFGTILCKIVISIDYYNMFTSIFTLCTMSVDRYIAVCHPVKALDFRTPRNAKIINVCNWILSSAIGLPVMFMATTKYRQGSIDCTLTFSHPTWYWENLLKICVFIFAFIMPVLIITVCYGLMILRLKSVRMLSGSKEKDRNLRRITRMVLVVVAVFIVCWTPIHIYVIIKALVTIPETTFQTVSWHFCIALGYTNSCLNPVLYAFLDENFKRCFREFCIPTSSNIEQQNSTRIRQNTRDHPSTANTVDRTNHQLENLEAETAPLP
Chain of Opioid receptors; mu & kappa (Homo sapiens) (P41145 whole entry, looked up): as the sequence (P41145 whole entry, looked up) above
Experiment [13] deals with Delta-type opioid receptor (Rattus norvegicus, UniProt P33533). The experiment is described as follows: Binding affinity on HEK293 cells transiently transfected with plasmids encoding the rat Opioid receptor delta 1. Format: cell-based.
Chain of Delta-type opioid receptor (P33533 whole entry): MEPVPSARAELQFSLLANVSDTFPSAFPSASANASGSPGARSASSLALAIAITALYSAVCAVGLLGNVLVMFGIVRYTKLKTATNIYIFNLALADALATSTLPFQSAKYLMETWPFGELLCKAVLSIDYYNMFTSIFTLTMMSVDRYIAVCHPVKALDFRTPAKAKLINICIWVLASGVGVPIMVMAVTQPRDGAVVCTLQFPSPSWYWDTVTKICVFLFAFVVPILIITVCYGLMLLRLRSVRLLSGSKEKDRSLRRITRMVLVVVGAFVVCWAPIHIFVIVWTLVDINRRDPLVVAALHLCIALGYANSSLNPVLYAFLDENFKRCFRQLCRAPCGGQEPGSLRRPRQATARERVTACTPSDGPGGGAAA
Experiment [14] deals with T1, Opioid receptors; delta & kappa (Homo sapiens). The experiment is described as follows: Selectivity ratio, ratio of Ke value of kappa to delta opioid receptor (extrapolated value). The format is protein assay.

Chain of Delta-type opioid receptor (Mus musculus) (P32300 whole entry): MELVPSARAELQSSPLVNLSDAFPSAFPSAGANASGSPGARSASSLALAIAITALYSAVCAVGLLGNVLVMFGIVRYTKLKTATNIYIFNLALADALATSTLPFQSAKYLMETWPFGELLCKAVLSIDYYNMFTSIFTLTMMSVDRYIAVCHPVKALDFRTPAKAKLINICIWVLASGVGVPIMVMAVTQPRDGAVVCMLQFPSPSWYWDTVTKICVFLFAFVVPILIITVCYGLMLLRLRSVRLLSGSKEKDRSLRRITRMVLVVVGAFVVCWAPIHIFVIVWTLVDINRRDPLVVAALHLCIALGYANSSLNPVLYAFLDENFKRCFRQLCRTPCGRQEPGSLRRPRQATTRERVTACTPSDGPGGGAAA

With `N#CN/C(N)=N/Cc1ccc2[nH]c3c(c2c1)C[C@@]1(O)C2Cc4ccc(O)c5c4[C@@]1(CCN2CC1CC1)[C@H]3O5`, the results for the Ke in experiment [1], in [2] and in experiment [8] were 5.9 nM, 18 nM and 2.9 nM, respectively. For the same compound, the results for the IC50 ratio in experiment [3], in experiment [5] and in [7] were 35.4, 6.7 and 17.9, respectively. In addition, the Ratio was 2 in experiment [4] and 6.2 in experiment [6].
Turning to `CSC(=N)Nc1ccc2[nH]c3c(c2c1)C[C@@]1(O)C2Cc4ccc(O)c5c4[C@@]1(CCN2CC1CC1)[C@H]3O5`, the Ke in [2] came to 16 nM; in experiment [8], 0.5 nM. The figures for the IC50 ratio in experiment [3], in experiment [5] and in [7] were 43.6, 7.4 and 1.9, respectively. Also, the Ratio in [6] was 33; in [9] it was 115.
Regarding `N=C(N)Nc1ccc2[nH]c3c(c2c1)C[C@@]1(O)[C@H]2Cc4ccc(O)c5c4[C@@]1(CCN2CC1CC1)[C@H]3O5` [GUANIDINONALTRINDOLE], the inhibition constant (Ki) on Mu-type opioid receptor came out at 22.5 nM; in experiment [10], 0.18 nM; in experiment [13] it was 46.2 nM. Further, the Ratio in [6] was 193; in experiment [11], 257; in experiment [12], 125; in experiment [9], 366.
Regarding `C[N+](C)(C)CCc1ccc2[nH]c3c(c2c1)C[C@@]1(O)C2Cc4ccc(O)c5c4[C@@]1(CCN2CC1CC1)[C@H]3O5`, the Ke is 5.7 nM in experiment [2] and 0.4 nM in [8]. Besides, the IC50 ratio in experiment [3] is 48; in experiment [5] it was 18.5; in experiment [7], 2.5. Besides, the values for the Ratio in experiment [6] and in experiment [14] were 13 and 96, respectively.
Turning to `N=C(N)NCCc1ccc2[nH]c3c(c2c1)C[C@@]1(O)[C@H]2Cc4ccc(O)c5c4[C@@]1(CCN2CC1CC1)[C@H]3O5`, the Ki on Mu-type opioid receptor was found to be 33.4 nM; in [10] it was 0.507 nM; in [13], 10.7 nM. In addition, the figures for the Ke in experiment [1], in experiment [2] and in experiment [8] were 3.4 nM, 12 nM and 1.7 nM, respectively. Also, the figures for the IC50 ratio in experiment [3], in experiment [5] and in experiment [7] were 59.8, 9.1 and 30.1, respectively. In addition, the Ratio in experiment [4] was determined as 2; in [6], 7.3; in [11], 21; in experiment [12] it was 66.

Usually Ki stands for the equilibrium dissociation constant of an inhibitor or competing ligand from its target. A high value points to lower affinity.
